Laboratory results from PMC12366525, “Characterization of allosteric modulators that disrupt androgen receptor co-activator protein-protein interactions to alter transactivation–Drug leads for metastatic castration resistant prostate cancer” (SLAS discovery : advancing life sciences R & D, 2023).
Entries after “also recorded” stand apart in the source; their conditions may differ.

Legend:
[1] = molecular target: T1, AR (Homo sapiens, UniProt P10275, T878A); assay: Western blotting cellular thermal shift assay for AR in C4–2 cells; assay type: cell-based; conditions: 1 h at 37 °C prior to heat shock at 46 °C, hits and enzalutamide 20 μM, DHT 10 nM
T1 construct: DHT-induced full length AR directed TA; endogenous in cells; host or cells: C4–2 castration resistant prostate cancer cells
T1 sequence (P10275 1-920 T878A): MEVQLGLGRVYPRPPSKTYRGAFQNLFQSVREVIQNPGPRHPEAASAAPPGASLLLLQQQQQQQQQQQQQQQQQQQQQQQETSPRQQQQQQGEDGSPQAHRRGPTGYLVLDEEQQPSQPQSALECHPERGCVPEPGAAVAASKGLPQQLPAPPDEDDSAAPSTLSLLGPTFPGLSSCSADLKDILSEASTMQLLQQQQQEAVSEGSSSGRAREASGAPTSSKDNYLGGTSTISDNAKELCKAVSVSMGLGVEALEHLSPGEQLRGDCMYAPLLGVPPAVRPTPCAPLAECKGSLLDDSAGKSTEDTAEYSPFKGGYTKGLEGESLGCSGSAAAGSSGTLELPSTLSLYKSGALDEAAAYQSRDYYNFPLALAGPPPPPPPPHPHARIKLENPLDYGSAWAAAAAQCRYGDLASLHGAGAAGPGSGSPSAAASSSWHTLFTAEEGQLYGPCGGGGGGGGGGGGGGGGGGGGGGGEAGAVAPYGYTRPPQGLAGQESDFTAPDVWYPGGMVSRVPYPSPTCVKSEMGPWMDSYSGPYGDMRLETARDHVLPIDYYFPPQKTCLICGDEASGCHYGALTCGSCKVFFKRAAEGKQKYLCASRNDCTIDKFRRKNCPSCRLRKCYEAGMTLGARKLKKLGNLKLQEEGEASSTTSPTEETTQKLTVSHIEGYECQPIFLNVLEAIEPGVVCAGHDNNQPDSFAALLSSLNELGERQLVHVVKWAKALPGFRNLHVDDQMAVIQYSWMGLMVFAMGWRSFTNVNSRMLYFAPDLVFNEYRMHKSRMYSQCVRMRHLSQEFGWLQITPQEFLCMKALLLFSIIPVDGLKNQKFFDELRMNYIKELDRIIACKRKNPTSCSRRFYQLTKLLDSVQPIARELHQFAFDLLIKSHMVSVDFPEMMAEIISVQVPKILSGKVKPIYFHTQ
Description: C4–2 cells were harvested by trypsinization, washed 1x by centrifugation at 270 × g for 5 min and resuspension in PBS, counted, centrifugated at 270 × g for 5 min and resuspended at 7 × 10 [6] cells per mL in Opti-MEM medium (Gibco, Gaithersburg, MD). 50 μL of C4–2 cell suspension (3.5 × 10 [5] cells) were then transferred to PCR tubes that were placed in a T-100 thermocycler (BioRad, Hercules, CA) and a 2 °C interval temperature step gradient from 37 °C to 53 °C was applied. Cells were maintained at each step of the temperature gradient for 5 min and then tubes were withdrawn and placed on ice. 50 μL of cell lysis buffer, 500 mM NaCl, 1% NP-40, 1x protease inhibitor cocktail in PBS were added to the heat shocked cell suspensions in PCR tubes and placed on ice for an additional 30 min. […] 45 μL of cell lysis supernatants were mixed with 15 μL of 5x SDS-PAGE sample buffer and placed in a heat block at 100 °C for 5 min. The protein constituents of heat shocked C4–2 cell lysis supernatants were separated by SDS-PAGE on 8% separating gels, transferred to nitrocellulose membranes that were blocked for 1 h at room temperature in 5% non-fat milk in TBST, and then probed overnight at 4 °C with a 1:1000 dilution of either rabbit anti-AR (Cell Signaling, Danvers, MA) or rabbit anti-TIF2 (Bethyl Laboratories, Waltham, MA) primary antibodies in TBST containing 5% non-fat milk. Membranes were then washed 3x in TBST buffer for 10 min, then incubated with a 1:10,000 dilution of the goat anti-rabbit IgG HRP conjugated secondary antibody (Invitrogen, Carlsbad,CA) in TBST containing 5% non-fat milk for 1 h at room temperature. Western blots were then washed 3x in TBST buffer and developed with Pierce ECL western blotting substrate. Images of ECL western blots were acquired on an iBright 1500 imaging system and quantified using the iBright image analysis software.

[2] = molecular target: T1, AR; assay: AlphaScreen cellular thermal shift assay (CETSA) for AR in C4–2 cells; assay type: cell-based; conditions: for Effect on AR thermal stability, AlphaScreen CETSA: 1 h at 37 °C prior to heat shock at 46 °C, hits and enzalutamide 20 μM, DHT 10 nM; for Effect on maximum efficacy of DHT-enhanced AR thermal stabilization / Right shift of the DHT EC50 for AR thermal stabilization: 20 or 50 μM compound pre-treatment
Description: Mouse anti-hAR (BD Biosciences, San Jose, CA) and rabbit anti-hAR (MilliporeSigma, Burlington, MA) were diluted 1:330 and 1:1000 fold respectively in PBS containing 0.5 mg/mL BSA and 4 μL of the combined diluted AR antibody pair were added to 4 μL of the cell lysate supernatant in a 384-well plate and incubated in the dark for 30 min at room temperature. To each well of the 384-well plate 4 μL of a combined solution of anti-mouse IgG Alpha Donor and anti-rabbit IgG (Fc specific) AlphaLISA Acceptor beads suspended in 1x lysis buffer was added to yield a final donor and acceptor bead concentrations of 40 μg/mL and 10 μg/mL respectively.

Row | Right shift of the DHT EC50 for AR thermal stabilization [2] | SMILES | Effect on AR thermal stability, western blot CETSA [1] | Effect on AR thermal stability, AlphaScreen CETSA [2] | Effect on maximum efficacy of DHT-enhanced AR thermal stabilization [2]
1 | – | Cc1ccccc1-c1cc(O)c2c(c1)CN(c1nc(C(N)=O)cs1)CCO2 [S1–1] | did not stabilize AR, but blocked DHT-enhanced AR stabilization; also recorded: only partially blocked DHT-enhanced AR stabilization | did not stabilize AR in the AlphaScreen assay but blocked DHT-enhanced AR thermal stabilization | –
2 | > 10 fold | Cc1nsc(NC(=O)N2CCC(Sc3ccccc3C)CC2)n1 [S2–6] | did not stabilize AR, but blocked DHT-enhanced AR stabilization; also recorded: blocked DHT-enhanced AR thermal stabilization below DMSO baseline levels | did not stabilize AR in the AlphaScreen assay but blocked DHT-enhanced AR thermal stabilization | reduced the maximum efficacy of DHT-enhanced AR thermal stabilization
3 | ≥ 10 fold | Cc1c(-c2ccccc2F)[nH]c2ccc(CNC(=O)CCc3cn[nH]c3)cc12 [S3–11] | did not stabilize AR, but blocked DHT-enhanced AR stabilization; also recorded: only partially blocked DHT-enhanced AR stabilization | did not stabilize AR in the AlphaScreen assay but blocked DHT-enhanced AR thermal stabilization | at 50 μM reduced the maximum efficacy of DHT
